In US8809331B2 (Genentech, Inc., priority 2011, dated 2014):

biological target: T1, LRRK2 (Homo sapiens, UniProt Q5S007, G2019S); experiment: In Vitro LRRK2 LabChip Assay (LRRK2 Ki); type: biochemical; settings: Table 5 compounds (formula I)
T1 construct: purchased Invitrogen PV4882
T1 sequence (Q5S007 whole entry G2019S): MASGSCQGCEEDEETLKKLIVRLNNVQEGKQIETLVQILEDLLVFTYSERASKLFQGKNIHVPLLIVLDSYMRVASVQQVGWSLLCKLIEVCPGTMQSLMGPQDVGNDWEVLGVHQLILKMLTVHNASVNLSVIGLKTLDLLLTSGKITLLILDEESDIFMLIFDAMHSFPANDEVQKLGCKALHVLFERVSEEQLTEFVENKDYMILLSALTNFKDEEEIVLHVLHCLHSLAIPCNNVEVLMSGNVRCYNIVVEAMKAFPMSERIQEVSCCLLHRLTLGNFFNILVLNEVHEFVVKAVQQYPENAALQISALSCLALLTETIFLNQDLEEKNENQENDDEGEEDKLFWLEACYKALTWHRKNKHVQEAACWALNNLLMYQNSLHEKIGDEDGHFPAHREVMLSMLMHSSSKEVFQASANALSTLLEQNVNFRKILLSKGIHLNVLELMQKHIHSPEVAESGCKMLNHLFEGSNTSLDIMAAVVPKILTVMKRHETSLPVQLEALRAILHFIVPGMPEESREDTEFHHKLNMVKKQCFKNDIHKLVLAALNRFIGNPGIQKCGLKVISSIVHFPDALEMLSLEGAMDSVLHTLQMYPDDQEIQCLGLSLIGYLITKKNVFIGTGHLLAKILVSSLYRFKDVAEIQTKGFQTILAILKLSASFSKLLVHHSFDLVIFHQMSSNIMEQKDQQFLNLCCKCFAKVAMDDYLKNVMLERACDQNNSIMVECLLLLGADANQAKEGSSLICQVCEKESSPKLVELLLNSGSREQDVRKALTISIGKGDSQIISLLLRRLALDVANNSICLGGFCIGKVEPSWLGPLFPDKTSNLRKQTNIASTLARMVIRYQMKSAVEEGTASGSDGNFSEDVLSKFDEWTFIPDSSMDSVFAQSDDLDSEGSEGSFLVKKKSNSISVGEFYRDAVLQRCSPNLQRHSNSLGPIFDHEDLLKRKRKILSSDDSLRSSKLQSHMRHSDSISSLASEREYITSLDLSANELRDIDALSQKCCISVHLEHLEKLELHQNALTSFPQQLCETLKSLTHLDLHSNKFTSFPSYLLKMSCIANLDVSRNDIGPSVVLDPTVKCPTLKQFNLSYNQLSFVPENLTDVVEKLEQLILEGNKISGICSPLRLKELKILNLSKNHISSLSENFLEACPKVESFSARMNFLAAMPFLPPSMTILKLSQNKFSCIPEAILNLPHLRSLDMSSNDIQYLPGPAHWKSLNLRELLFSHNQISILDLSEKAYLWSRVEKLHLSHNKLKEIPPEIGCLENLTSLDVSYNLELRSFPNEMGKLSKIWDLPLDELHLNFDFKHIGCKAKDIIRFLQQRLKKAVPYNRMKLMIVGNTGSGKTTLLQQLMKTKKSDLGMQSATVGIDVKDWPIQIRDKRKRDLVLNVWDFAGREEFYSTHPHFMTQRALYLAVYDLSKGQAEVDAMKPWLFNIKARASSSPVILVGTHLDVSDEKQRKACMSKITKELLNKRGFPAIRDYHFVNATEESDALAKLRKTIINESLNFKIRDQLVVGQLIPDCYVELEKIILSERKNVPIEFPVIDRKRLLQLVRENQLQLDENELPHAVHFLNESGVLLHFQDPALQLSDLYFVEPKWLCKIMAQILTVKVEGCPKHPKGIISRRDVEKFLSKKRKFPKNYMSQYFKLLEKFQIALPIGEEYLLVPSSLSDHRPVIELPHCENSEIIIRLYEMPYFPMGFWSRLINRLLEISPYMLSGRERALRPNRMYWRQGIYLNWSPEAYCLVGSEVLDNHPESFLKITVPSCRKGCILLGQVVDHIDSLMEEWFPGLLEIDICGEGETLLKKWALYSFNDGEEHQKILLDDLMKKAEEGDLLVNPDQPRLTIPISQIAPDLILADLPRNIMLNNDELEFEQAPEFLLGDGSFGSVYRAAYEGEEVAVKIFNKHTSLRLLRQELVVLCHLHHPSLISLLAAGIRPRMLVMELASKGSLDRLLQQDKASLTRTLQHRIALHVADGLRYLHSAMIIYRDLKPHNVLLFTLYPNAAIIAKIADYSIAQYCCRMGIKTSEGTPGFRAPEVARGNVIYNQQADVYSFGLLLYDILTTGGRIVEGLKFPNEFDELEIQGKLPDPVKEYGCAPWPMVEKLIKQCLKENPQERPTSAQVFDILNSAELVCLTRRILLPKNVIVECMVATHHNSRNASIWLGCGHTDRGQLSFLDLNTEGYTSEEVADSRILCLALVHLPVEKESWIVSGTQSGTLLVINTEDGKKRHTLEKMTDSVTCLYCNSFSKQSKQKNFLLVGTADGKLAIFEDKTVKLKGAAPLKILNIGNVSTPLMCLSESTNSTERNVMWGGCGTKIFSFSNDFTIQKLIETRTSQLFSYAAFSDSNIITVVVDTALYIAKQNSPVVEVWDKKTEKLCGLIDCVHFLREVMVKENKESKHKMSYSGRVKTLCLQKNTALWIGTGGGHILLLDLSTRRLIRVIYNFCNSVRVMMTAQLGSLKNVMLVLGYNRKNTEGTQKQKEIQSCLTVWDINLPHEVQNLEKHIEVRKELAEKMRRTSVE

SMILES	Ki [nM]
CNc1nc(Nc2cc(OC)c(C(=O)N3CCC(F)(F)C3)cc2Cl)ncc1C(F)(F)F [Compound 24, [5-Chloro-2-methoxy-4-(4-methylamino-5-trifluoromethyl-pyrimidin-2-ylamino)-phenyl]-(3,3-difluoro-pyrrolidin-1-yl)-methanone]	6.67
CNc1nc(Nc2cc(F)c(C(=O)NCC(C)(C)O)cc2OC)ncc1C(F)(F)F [Compound 35, 2-Fluoro-N-(2-hydroxy-2-methyl-propyl)-5-methoxy-4-(4-methylamino-5-trifluoromethyl-pyrimidin-2-ylamino)-benzamide]	4.36
CNc1nc(Nc2cc(C)c(C(=O)N3CCOCC3)cc2OCF)ncc1C(F)(F)F [Compound 88, [5-Fluoromethoxy-2-methyl-4-(4-methylamino-5-trifluoromethyl-pyrimidin-2-ylamino)-phenyl]-morpholin-4-yl-methanone]	1.01
CCNc1nc(Nc2ccc(C(=O)N3CC[C@H](F)C3)cc2OC)ncc1C#N [Compound 54, 4-Ethylamino-2-[4-((S)-3-fluoro-pyrrolidine-1-carbonyl)-2-methoxy-phenylamino]-pyrimidine-5-carbonitrile]	82.5
CCNc1nc(Nc2cc(F)c(C(=O)NCC(C)(C)O)cc2OC)ncc1C(F)(F)F [Compound 18, 4-(4-Ethylamino-5-trifluoromethyl-pyrimidin-2-ylamino)-2-fluoro-N-(2-hydroxy-2-methyl-propyl)-5-methoxy-benzamide]	0.429
CCNc1nc(Nc2cc(F)c(C(=O)N3C[C@H]4CC[C@@H](C3)O4)cc2OC)ncc1C(F)(F)F [Compound 6, [4-(4-Ethylamino-5-trifluoromethyl-pyrimidin-2-ylamino)-2-fluoro-5-methoxy-phenyl]-(1S,5R)-8-oxa-3-aza-bicyclo[3.2.1]oct-3-yl-methanone]	0.501
CNc1nc(Nc2ccc(C(=O)N3CCOCC3)c(F)c2F)ncc1Cl [Compound 13, [4-(5-Chloro-4-methylamino-pyrimidin-2-ylamino)-2,3-difluoro-phenyl]-morpholin-4-yl-methanone]	14.5
COc1cc(C(=O)N2CCOCC2)c(C)cc1Nc1ncc(C(F)(F)F)c(NC2CCC2)n1 [Compound 129, [4-(4-Cyclobutylamino-5-trifluoromethyl-pyrimidin-2-ylamino)-5-methoxy-2-methyl-phenyl]-morpholin-4-yl-methanone]	0.31
COc1nc(Nc2cc(C)c(C(=O)N3CCCC3)cc2OCF)ncc1Cl [Compound 119, [4-(5-Chloro-4-methoxy-pyrimidin-2-ylamino)-5-fluoromethoxy-2-methyl-phenyl]-pyrrolidin-1-yl-methanone]	11.2
CNc1nc(Nc2cc(OC)c(C(=O)N3CCOCC3)cc2C)ncc1C(F)(F)F [Compound 58, [2-Methoxy-5-methyl-4-(4-methylamino-5-trifluoromethyl-pyrimidin-2-ylamino)-phenyl]-morpholin-4-yl-methanone]	5.63
CCNc1nc(Nc2cc(C)c(C(=O)N3CC[C@H](F)C3)cc2OC)ncc1C#N [Compound 97, 4-Ethylamino-2-[4-((S)-3-fluoro-pyrrolidine-1-carbonyl)-2-methoxy-5-methyl-phenylamino]-pyrimidine-5-carbonitrile]	1.21
CCNc1nc(Nc2cc(F)c(C(=O)NCC3(O)CC3)cc2OC)ncc1C(F)(F)F [Compound 115, 4-(4-Ethylamino-5-trifluoromethyl-pyrimidin-2-ylamino)-2-fluoro-N-(1-hydroxy-cyclopropylmethyl)-5-methoxy-benzamide]	0.31
CCNc1nc(Nc2cc(C)c(C(=O)N3CCOCC3)cc2Cl)ncc1C(F)(F)F [Compound 71, [5-Chloro-4-(4-ethylamino-5-trifluoromethyl-pyrimidin-2-ylamino)-2-methyl-phenyl]-morpholin-4-yl-methanone]	1.08
COc1cc(C(=O)N2CCOCC2)c(F)cc1Nc1ncc(C(F)(F)F)c(NC(C)C)n1 [Compound 32, [2-Fluoro-4-(4-isopropylamino-5-trifluoromethyl-pyrimidin-2-ylamino)-5-methoxy-phenyl]-morpholin-4-yl-methanone]	3.49
CNc1nc(Nc2cc(F)c(C(=O)N3C[C@H]4CC[C@@H](C3)O4)cc2OC)ncc1C(F)(F)F [Compound 5, [2-Fluoro-5-methoxy-4-(4-methylamino-5-trifluoromethyl-pyrimidin-2-ylamino)-phenyl]-(1S,5R)-8-oxa-3-aza-bicyclo[3.2.1]oct-3-yl-methanone]	1.78
CNc1nc(Nc2ccc(C(=O)N3CCOCC3)cc2F)ncc1C(F)(F)F [Compound 22, [3-Fluoro-4-(4-methylamino-5-trifluoromethyl-pyrimidin-2-ylamino)-phenyl]-morpholin-4-yl-methanone]	20.9
CCOc1nc(Nc2cc(F)c(C(=O)N3CCOCC3)cc2OC)ncc1C(F)(F)F [Compound 64, [4-(4-Ethoxy-5-trifluoromethyl-pyrimidin-2-ylamino)-2-fluoro-5-methoxy-phenyl]-morpholin-4-yl-methanone]	16.9

SMILES	Ki [nM]
CCNc1nc(Nc2cc(F)c(C(=O)N3CCOCC3)cc2OCCF)ncc1C(F)(F)F [Compound 49, [4-(4-Ethylamino-5-trifluoromethyl-pyrimidin-2-ylamino)-2-fluoro-5-(2-fluoro-ethoxy)-phenyl]-morpholin-4-yl-methanone]	2.02
CNc1nc(Nc2cc(OC)c(C(=O)NCC(C)(C)O)cc2F)ncc1C(F)(F)F [Compound 27, 5-Fluoro-N-(2-hydroxy-2-methyl-propyl)-2-methoxy-4-(4-methylamino-5-trifluoromethyl-pyrimidin-2-ylamino)-benzamide]	11.7
CCNc1nc(Nc2cc(F)c(C(=O)N3CC[C@H](F)C3)cc2OC)ncc1C#N [Compound 80, 4-Ethylamino-2-[5-fluoro-4-((S)-3-fluoro-pyrrolidine-1-carbonyl)-2-methoxy-phenylamino]-pyrimidine-5-carbonitrile]	10.4
O=C(c1cc(Cl)c(Nc2ncc(C(F)(F)F)c(NC3CC3)n2)cc1OCF)N1CCOCC1 [Compound 102, [5-Chloro-4-(4-cyclopropylamino-5-trifluoromethyl-pyrimidin-2-ylamino)-2-fluoromethoxy-phenyl]-morpholin-4-yl-methanone]	708
CNc1nc(Nc2cc(OC)c(C(=O)N3C[C@@H]4C[C@H]3CO4)cc2Cl)ncc1C(F)(F)F [Compound 15, [5-Chloro-2-methoxy-4-(4-methylamino-5-trifluoromethyl-pyrimidin-2-ylamino)-phenyl]-(1S,4S)-2-oxa-5-aza-bicyclo[2.2.1]hept-5-yl-methanone]	2.55
CCNc1nc(Nc2cc(OC)c(C(=O)N3CCC(F)(F)C3)cc2OCCF)ncc1C(F)(F)F [Compound 61, (3,3-Difluoro-pyrrolidin-1-yl)-[4-(4-ethylamino-5-trifluoromethyl-pyrimidin-2-ylamino)-5-(2-fluoro-ethoxy)-2-methoxy-phenyl]-methanone]	1.03
CNc1nc(Nc2ccc(C(=O)N3CCOCC3)cc2OC(F)F)ncc1C(F)(F)F [Compound 47, [3-Difluoromethoxy-4-(4-methylamino-5-trifluoromethyl-pyrimidin-2-ylamino)-phenyl]-morpholin-4-yl-methanone]	5.98
CNc1nc(Nc2cc(C)c(C(=O)N3CCOCC3)cc2OC)ncc1C(F)(F)F [Compound 3, [5-Methoxy-2-methyl-4-(4-methylamino-5-trifluoromethyl-pyrimidin-2-ylamino)-phenyl]-morpholin-4-yl-methanone]	1.43
CCNc1nc(Nc2ccc(C(=O)NC(C)(C)C)cc2OC)ncc1C(F)(F)F [Compound 21, N-tert-Butyl-4-(4-ethylamino-5-trifluoromethyl-pyrimidin-2-ylamino)-3-methoxy-benzamide]	0.371
CNc1nc(Nc2cc(C)c(C(=O)N3CCOCC3)cc2OCC2CC2)ncc1C(F)(F)F [Compound 109, [5-Cyclopropylmethoxy-2-methyl-4-(4-methylamino-5-trifluoromethyl-pyrimidin-2-ylamino)-phenyl]-morpholin-4-yl-methanone]	1.38
CNc1nc(Nc2cc(OC)c(C(=O)N3CCCC3)cc2OCF)ncc1C(F)(F)F [Compound 90, [5-Fluoromethoxy-2-methoxy-4-(4-methylamino-5-trifluoromethyl-pyrimidin-2-ylamino)-phenyl]-pyrrolidin-1-yl-methanone]	3.2
CNc1nc(Nc2cc(C(F)(F)F)c(C(=O)N3CCOCC3)cc2OC)ncc1Cl [Compound 68, [4-(5-Chloro-4-methylamino-pyrimidin-2-ylamino)-5-methoxy-2-trifluoromethyl-phenyl]-morpholin-4-yl-methanone]	4.73
CNc1nc(Nc2cc(OC)c(C(=O)N3CC(N4CCOCC4)C3)cc2Cl)ncc1C(F)(F)F [Compound 20, [5-Chloro-2-methoxy-4-(4-methylamino-5-trifluoromethyl-pyrimidin-2-ylamino)-phenyl]-(3-morpholin-4-yl-azetidin-1-yl)-methanone]	3.12
CNc1nc(Nc2cc(C)c(C(=O)N3CCCC3)cc2OCF)ncc1C(F)(F)F [Compound 101, [5-Fluoromethoxy-2-methyl-4-(4-methylamino-5-trifluoromethyl-pyrimidin-2-ylamino)-phenyl]-pyrrolidin-1-yl-methanone]	0.685
CCNc1nc(Nc2cc(OC)c(C(=O)N3CCOCC3)cc2OC)ncc1C(F)(F)F [Compound 125, [4-(4-Ethylamino-5-trifluoromethyl-pyrimidin-2-ylamino)-2,5-dimethoxy-phenyl]-morpholin-4-yl-methanone]	0.577
CNc1nc(Nc2cc(F)c(C(=O)N3CCOCC3)cc2Cl)ncc1C(F)(F)F [Compound 69, [5-Chloro-2-fluoro-4-(4-methylamino-5-trifluoromethyl-pyrimidin-2-ylamino)-phenyl]-morpholin-4-yl-methanone]	9.31
CCNc1nc(Nc2cc(C)c(C(=O)N3CCOCC3)cc2OC)ncc1C(F)(F)F [Compound 44, [4-(4-Ethylamino-5-trifluoromethyl-pyrimidin-2-ylamino)-5-methoxy-2-methyl-phenyl]-morpholin-4-yl-methanone]	0.31

same assay, conditions: Table 6 compounds (formula II/III, fused ring)

SMILES	Ki [nM]
CNc1nc(Nc2cc(C)c(C(=O)N3CCOCC3)cc2OC)ncc1C(F)(F)F [Compound 3, [5-Methoxy-2-methyl-4-(4-methylamino-5-trifluoromethyl-pyrimidin-2-ylamino)-phenyl]-morpholin-4-yl-methanone]	1.08
